Drawing on patent US20230092890A1, “1, 3, 4-Oxadiazole derivative compounds as histone deacetylase 6 inhibitor, and the pharmaceutical composition comprising the same” (Chong Kun Dang Pharmaceutical Corp., priority 2019, published 2023), this text covers IC50 for 18 compounds.

One assay has as its target T1, HDAC6 human recombinant (Homo sapiens, UniProt Q9UBN7).
T1 construct: purchased Calbiochem 382180
T1 sequence (Q9UBN7 1-1215): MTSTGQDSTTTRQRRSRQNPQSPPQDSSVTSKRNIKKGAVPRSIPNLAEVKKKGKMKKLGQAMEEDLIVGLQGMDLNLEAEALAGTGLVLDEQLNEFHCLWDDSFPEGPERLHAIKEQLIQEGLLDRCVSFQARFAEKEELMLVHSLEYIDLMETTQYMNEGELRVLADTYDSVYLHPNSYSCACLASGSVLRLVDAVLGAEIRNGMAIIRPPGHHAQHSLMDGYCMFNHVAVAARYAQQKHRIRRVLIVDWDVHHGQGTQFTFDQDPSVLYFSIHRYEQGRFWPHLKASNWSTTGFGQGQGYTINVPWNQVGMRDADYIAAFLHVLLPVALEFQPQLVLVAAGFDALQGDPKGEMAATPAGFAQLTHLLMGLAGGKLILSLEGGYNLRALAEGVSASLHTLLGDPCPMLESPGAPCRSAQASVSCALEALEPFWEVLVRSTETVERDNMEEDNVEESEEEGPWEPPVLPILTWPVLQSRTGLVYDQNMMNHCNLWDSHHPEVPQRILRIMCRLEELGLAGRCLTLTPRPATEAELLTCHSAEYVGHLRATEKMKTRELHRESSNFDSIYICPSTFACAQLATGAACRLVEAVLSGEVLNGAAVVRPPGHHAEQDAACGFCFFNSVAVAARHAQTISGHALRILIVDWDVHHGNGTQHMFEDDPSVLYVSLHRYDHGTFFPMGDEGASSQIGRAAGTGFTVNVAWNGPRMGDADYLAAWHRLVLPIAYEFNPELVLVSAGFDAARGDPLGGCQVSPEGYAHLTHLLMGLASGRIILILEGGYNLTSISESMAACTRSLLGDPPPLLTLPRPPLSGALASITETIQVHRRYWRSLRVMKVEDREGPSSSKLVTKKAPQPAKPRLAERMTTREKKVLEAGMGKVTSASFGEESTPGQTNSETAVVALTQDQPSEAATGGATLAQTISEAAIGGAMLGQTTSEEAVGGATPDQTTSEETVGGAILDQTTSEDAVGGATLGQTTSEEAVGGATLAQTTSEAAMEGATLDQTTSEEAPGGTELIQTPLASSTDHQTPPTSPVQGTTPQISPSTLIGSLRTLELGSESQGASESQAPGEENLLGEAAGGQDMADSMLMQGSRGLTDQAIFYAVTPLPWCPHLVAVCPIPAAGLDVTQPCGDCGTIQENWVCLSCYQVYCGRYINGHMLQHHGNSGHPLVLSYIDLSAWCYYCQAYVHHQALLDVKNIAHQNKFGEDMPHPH
As to the kind of experiment: HDAC enzyme activity inhibition (in vitro), HDAC6 assay. The note with it: samples at 0.1, 1, 10, 100 and 1000 nM; 37° C. 60 minutes; fluorescence Ex 390, Em 460; read-out: HDAC6 IC50. It counts as biochemical. The gist of the method: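 Fluorescence (Ex 390, Em 460) read after a 37° C, 60 min enzyme reaction and a further 30 min developer step at 37° C. Uses recombinant human HDAC6; HDAC1 arm dosed at 100, 1000, 10000 nM.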

A further assay concerns the target T2, HDAC1 (Homo sapiens, UniProt Q13547).
T2 construct: purchased Enzolifesciences BML-AK511
As to the kind of experiment: HDAC enzyme activity inhibition (in vitro), HDAC1 Fluorimetric Drug Discovery Assay Kit. It counts as biochemical. The note with it: samples at 100, 1000 and 10000 nM; 37° C. 60 minutes; fluorescence Ex 390, Em 460; read-out: HDAC1 IC50. The gist of the method:
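Fluorimetric read-out (Ex 390, Em 460) after a 60 min 37° C enzyme reaction and 30 min 37° C developer step. Tested levels: 0.1-1000 nM (0.1, 1, 10, 100, 1000) on recombinant human HDAC6; 100, 1000 and 10000 nM on HDAC1 kit enzyme.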

T2 sequence (Q13547 whole entry): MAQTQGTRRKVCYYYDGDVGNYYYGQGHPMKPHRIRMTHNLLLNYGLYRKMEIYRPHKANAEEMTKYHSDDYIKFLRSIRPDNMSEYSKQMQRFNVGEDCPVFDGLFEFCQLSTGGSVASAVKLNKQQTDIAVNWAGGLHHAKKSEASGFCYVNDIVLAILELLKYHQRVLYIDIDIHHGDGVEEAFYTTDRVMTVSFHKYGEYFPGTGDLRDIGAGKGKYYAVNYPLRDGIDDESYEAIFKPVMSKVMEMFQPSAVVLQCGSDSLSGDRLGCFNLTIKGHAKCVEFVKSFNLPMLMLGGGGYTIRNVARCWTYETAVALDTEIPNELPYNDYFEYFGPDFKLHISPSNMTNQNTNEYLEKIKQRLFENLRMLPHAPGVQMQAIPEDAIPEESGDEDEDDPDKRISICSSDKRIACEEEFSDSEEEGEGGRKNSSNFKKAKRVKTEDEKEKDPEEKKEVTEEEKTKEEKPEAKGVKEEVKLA

As to `CC(=O)N1CCC(n2c(=O)n(Cc3ccc(-c4nnc(C(F)F)o4)cn3)c3ccc(Cl)cc32)CC1` [Compound 181, 3-(1-acetylpiperidine-4-yl)-5-chloro-1-((5-(5-(difluoromethyl)-1,3,4-oxadiazole-2-yl)pyridine-2-yl)methyl)-1,3-dihydro-2H-benzo[d]imidazole-2-one], the IC50 at HDAC6 human recombinant is 0.068 µM; on HDAC1, above 10 µM.

Take `CC(=O)N1CCC(n2c(=O)n(Cc3ccc(-c4nnc(C(F)F)o4)cc3F)c3ccc(Cl)cc32)CC1` [Compound 182, 3-(1-acetylpiperidine-4-yl)-5-chloro-1-(4-(5-(difluoromethyl)-1,3,4-oxadiazole-2-yl)-2-fluorobenzyl)-1,3-dihydro-2H-benzo[d]imidazole-2-one]: the IC50 was 0.118 µM at HDAC6 human recombinant and above 10 µM at HDAC1.

On to `CC(=O)N1CCC(n2c(=O)n(Cc3ccc(-c4nnc(C(F)F)o4)cc3)c3ccc(Cl)cc32)CC1` [Compound 183, 3-(1-acetylpiperidine-4-yl)-5-chloro-1-(4-(5-(difluoromethyl)-1,3,4-oxadiazole-2-yl)benzyl)-1,3-dihydro-2H-benzo[d]imidazole-2-one], for which the IC50 at HDAC6 human recombinant is 0.073 µM; at HDAC1 it was above 10 µM.

Take `CC(=O)N1CCC(n2c(=O)n(Cc3ccc(-c4nnc(C(F)F)o4)cn3)c3ncccc32)CC1` [Compound 184, 1-(1-acetylpiperidine-4-yl)-3-((5-(5-(difluoromethyl)-1,3,4-oxadiazole-2-yl)pyridine-2-yl)methyl)-1,3-dihydro-2H-imidazo[4,5-b]pyridine-2-one]: the IC50 was 0.137 µM at HDAC6 human recombinant and above 10 µM on HDAC1.

On to `CC(=O)N1CCC(n2c(=O)n(Cc3ccc(-c4nnc(C(F)F)o4)cc3F)c3ncccc32)CC1` [Compound 185, 1-(1-acetylpiperidine-4-yl)-3-(4-(5-(difluoromethyl)-1,3,4-oxadiazole-2-yl)-2-fluorobenzyl)-1,3-dihydro-2H-imidazo[4,5-b]pyridine-2-one], for which the IC50 on HDAC6 human recombinant is 0.202 µM; on HDAC1, above 10 µM.

For `CC(=O)N1CCC(n2c(=O)n(Cc3ccc(-c4nnc(C(F)F)o4)cc3)c3ncccc32)CC1` [Compound 186, 1-(1-acetylpiperidine-4-yl)-3-(4-(5-(difluoromethyl)-1,3,4-oxadiazole-2-yl)benzyl)-1,3-dihydro-2H-imidazo[4,5-b]pyridine-2-one], the half-inhibitory concentration (IC50) was 0.554 µM on HDAC6 human recombinant and above 10 µM at HDAC1.

Consider `CC(=O)N1CCC(n2c(=O)n(Cc3ccc(-c4nnc(C(F)F)o4)cn3)c3ccccc32)CC1` [Compound 187, 1-(1-acetylpiperidine-4-yl)-3-((5-(5-(difluoromethyl)-1,3,4-oxadiazole-2-yl)pyridine-2-yl)methyl)-1,3-dihydro-2H-benzo[d]imidazole-2-one], for which the IC50 is 0.064 µM on HDAC6 human recombinant and above 10 µM on HDAC1.

With `O=c1n(Cc2ccc(-c3nnc(C(F)F)o3)cc2F)c2cc(F)ccc2n1C1CCS(=O)(=O)CC1` [Compound 189, 3-(4-(5-(difluoromethyl)-1,3,4-oxadiazole-2-yl)-2-fluorobenzyl)-1-(1,1-dioxydotetrahydro-2H-thiopyran-4-yl)-5-fluoro-1,3-dihydro-2H-benzo[d]imidazole-2-one], the IC50 on HDAC6 human recombinant was 0.037 µM; on HDAC1 it was above 10 µM.

On to `O=c1n(Cc2ccc(-c3nnc(C(F)F)o3)cc2)c2cc(F)ccc2n1C1CCS(=O)(=O)CC1` [Compound 190, 3-(4-(5-(difluoromethyl)-1,3,4-oxadiazole-2-yl)benzyl)-1-(1,1-dioxydotetrahydro-2H-thiopyran-4-yl)-5-fluoro-1,3-dihydro-2H-benzo[d]imidazole-2-one], for which the IC50 was 0.046 µM at HDAC6 human recombinant and above 10 µM on HDAC1.

For `CS(=O)(=O)N1CCC(n2c(=O)n(Cc3ccc(-c4nnc(C(F)F)o4)cn3)c3c(F)cccc32)CC1` [Compound 191, 3-((5-(5-(difluoromethyl)-1,3,4-oxadiazole-2-yl)pyridine-2-yl)methyl)-4-fluoro-1-(1-(methylsulfonyl)piperidine-4-yl)-1,3-dihydro-2H-benzo[d]imidazole-2-one], the IC50 was 0.037 µM at HDAC6 human recombinant and above 10 µM on HDAC1.

Take `CS(=O)(=O)N1CCC(n2c(=O)n(Cc3ccc(-c4nnc(C(F)F)o4)cc3)c3cc(F)ccc32)CC1` [Compound 192, 3-(4-(5-(difluoromethyl)-1,3,4-oxadiazole-2-yl)benzyl)-5-fluoro-1-(1-(methylsulfonyl)piperidine-4-yl)-1,3-dihydro-2H-benzo[d]imidazole-2-one]: the IC50 at HDAC6 human recombinant is 0.079 µM; on HDAC1 it was above 10 µM.

In the case of `CS(=O)(=O)N1CCC(n2c(=O)n(Cc3ccc(-c4nnc(C(F)F)o4)cn3)c3cc(F)c(F)cc32)CC1` [Compound 193, 1-((5-(5-(difluoromethyl)-1,3,4-oxadiazole-2-yl)pyridine-2-yl)methyl)-5,6-difluoro-3-(1-(methylsulfonyl)piperidine-4-yl)-1,3-dihydro-2H-benzo[d]imidazole-2-one], the half-maximal inhibitory concentration (IC50) is 0.048 µM at HDAC6 human recombinant and above 10 µM on HDAC1.

On to `CS(=O)(=O)N1CCC(n2c(=O)n(Cc3ccc(-c4nnc(C(F)F)o4)cc3)c3cc(F)c(F)cc32)CC1` [Compound 194, 1-(4-(5-(difluoromethyl)-1,3,4-oxadiazole-2-yl)benzyl)-5,6-difluoro-3-(1-(methylsulfonyl)piperidine-4-yl)-1,3-dihydro-2H-benzo[d]imidazole-2-one], for which the results for the half-inhibitory concentration (IC50) on HDAC6 human recombinant and on HDAC1 were 0.084 µM and above 10 µM, respectively.

Consider `CS(=O)(=O)N1CCC(n2c(=O)n(Cc3ccc(-c4nnc(C(F)F)o4)cn3)c3cc(C(F)(F)F)ccc32)CC1` [Compound 195, 3-((5-(5-(difluoromethyl)-1,3,4-oxadiazole-2-yl)pyridine-2-yl)methyl)-1-(1-(methylsulfonyl)piperidine-4-yl)-5-(trifluoromethyl)-1,3-dihydro-2H-benzo[d]imidazole-2-one], for which the results for the IC50 on HDAC6 human recombinant and at HDAC1 were 0.05 µM and above 10 µM, respectively.

Regarding `CS(=O)(=O)N1CCC(n2c(=O)n(Cc3ccc(-c4nnc(C(F)F)o4)cc3F)c3cc(C(F)(F)F)ccc32)CC1` [Compound 196, 3-(4-(5-(difluoromethyl)-1,3,4-oxadiazole-2-yl)-2-fluorobenzyl)-1-(1-(methylsulfonyl)piperidine-4-yl)-5-(trifluoromethyl)-1,3-dihydro-2H-benzo[d]imidazole-2-one], the IC50 at HDAC6 human recombinant was 0.126 µM; at HDAC1, above 10 µM.

For `CC(=O)N1CCC(c2ccc3c(c2)n(C2CCN(C)CC2)c(=O)n3Cc2ccc(-c3nnc(C(F)F)o3)cn2)CC1` [Compound 197, 5-(1-acetylpiperidine-4-yl)-1-((5-(5-(difluoromethyl)-1,3,4-oxadiazole-2-yl)pyridine-2-yl)methyl)-3-(1-methylpiperidine-4-yl)-1,3-dihydro-2H-benzo[d]imidazole-2-one], the IC50 at HDAC6 human recombinant was 0.235 µM; at HDAC1, above 10 µM.

Regarding `CN1CCC(n2c(=O)n(Cc3ccc(-c4nnc(C(F)F)o4)cn3)c3ccc(C4CCN(S(C)(=O)=O)CC4)cc32)CC1` [Compound 198, 1-((5-(5-(difluoromethyl)-1,3,4-oxadiazole-2-yl)pyridine-2-yl)methyl)-3-(1-methylpiperidine-4-yl)-5-(1-(methylsulfonyl)piperidine-4-yl)-1,3-dihydro-2H-benzo[d]imidazole-2-one], the IC50 at HDAC6 human recombinant was 0.195 µM; on HDAC1, above 10 µM.

`CN1CCC(c2ccc3c(c2)n(C2CCN(C)CC2)c(=O)n3Cc2ccc(-c3nnc(C(F)F)o3)cn2)CC1` [Compound 199, 1-((5-(5-(difluoromethyl)-1,3,4-oxadiazole-2-yl)pyridine-2-yl)methyl)-3,5-bis(1-methylpiperidine-4-yl)-1,3-dihydro-2H-benzo[d]imidazole-2-one]: the values for the IC50 at HDAC6 human recombinant and on HDAC1 were 0.175 µM and above 10 µM, respectively.
